Settings: Liquid

CCCCO [butan-1-ol]
viscosity [mPa·s]
Settings | 293.15 K | 298.15 K | 313.15 K | 323.15 K | 333.15 K | 348.15 K | 353.15 K
100 kPa, Concentric cylinders viscometry | 2.959 | – | 1.794 | – | 1.154 | – | 0.7837
100 kPa, Vibrating wire viscometry | 2.969 | 2.601 | 1.797 | 1.429 | 1.156 | 0.8579 | 0.7903
1000 kPa, Vibrating wire viscometry | 3.001 | 2.622 | 1.813 | 1.44 | 1.172 | 0.8647 | 0.7943
5000 kPa, Vibrating wire viscometry | 3.108 | 2.715 | 1.89 | 1.491 | 1.227 | 0.8956 | 0.8284
10000 kPa, Vibrating wire viscometry | 3.244 | 2.834 | 1.967 | 1.556 | 1.29 | 0.9349 | 0.8637
20000 kPa, Vibrating wire viscometry | 3.479 | 3.079 | 2.14 | 1.69 | 1.389 | 1.016 | 0.9473
30000 kPa, Vibrating wire viscometry | 3.788 | 3.333 | 2.319 | 1.829 | 1.504 | 1.101 | 1.04
40000 kPa, Vibrating wire viscometry | 4.078 | 3.599 | 2.48 | 1.975 | 1.624 | 1.189 | 1.102
50000 kPa, Vibrating wire viscometry | 4.401 | 3.874 | 2.629 | 2.125 | 1.741 | 1.28 | 1.21
60000 kPa, Vibrating wire viscometry | 4.74 | 4.16 | 2.852 | 2.281 | 1.867 | 1.375 | 1.295
70000 kPa, Vibrating wire viscometry | 5.076 | 4.455 | 3.089 | 2.443 | 2.014 | 1.473 | 1.384
80000 kPa, Vibrating wire viscometry | 5.438 | 4.761 | 3.247 | 2.61 | 2.137 | 1.575 | 1.473
100000 kPa, Vibrating wire viscometry | 6.164 | 5.404 | 3.686 | 2.962 | 2.384 | 1.788 | 1.676
120000 kPa, Vibrating wire viscometry | 6.979 | 6.087 | 4.192 | 3.335 | 2.633 | 2.015 | 1.857
140000 kPa, Vibrating wire viscometry | 7.843 | 6.811 | 4.638 | 3.682 | 2.883 | 2.255 | 2.037

Source: the NIST ThermoML archive (doi:10.1016/j.jct.2016.07.008)
